Results: patent US20240327364A1, “THERAPEUTIC TARGETING OF GPR68 TO INDUCE FERROPTOSIS” (University Of Maryland, Baltimore, priority 2023, published 2024)

Key:
BMPR1B = target: T1, BMPR1B (Homo sapiens, UniProt O00238); assay: KinomeScan; assay type: binding; settings: read-out: % Control
T1 construct: purchased DiscoveRx (Fremont, CA)

CHEK2 = CHEK2 (Homo sapiens, UniProt O96017); assay: KinomeScan; assay type: binding; settings: read-out: % Control
IRAK4 = target: T2, IRAK4 (Homo sapiens, UniProt Q9NWZ3); assay: KinomeScan; assay type: binding; settings: read-out: % Control
T2 construct: purchased DiscoveRx (Fremont, CA)

KIT = target: T3, KIT (Homo sapiens, UniProt P10721); assay: KinomeScan; assay type: binding; settings: read-out: % Control
T3 construct: purchased DiscoveRx

MAP3K3 = target: T4, MAP3K3 (Homo sapiens, UniProt Q99759); assay: KinomeScan; assay type: binding; settings: read-out: % Control
T4 construct: purchased DiscoveRx (Fremont, CA)

SYK = target: T5, SYK (Homo sapiens, UniProt P43405); assay: KinomeScan; assay type: binding; settings: read-out: % Control
T5 construct: purchased DiscoveRx (Fremont, CA)

WEE2 = target: T6, WEE2 (Homo sapiens, UniProt P0C1S8); assay: KinomeScan; assay type: binding; settings: read-out: % Control
T6 construct: purchased DiscoveRx

5-HT2B = target: T7, 5-HT2B (Homo sapiens, UniProt P41595); assay: GPCR Profiler; assay type: cell-based
T7 construct: host or cells: Chem-1 cells with promiscuous Gα15

GAL1 = target: T8, GAL1 (Homo sapiens, UniProt P47211); assay: GPCR Profiler; assay type: cell-based
T8 construct: host or cells: Chem-1 cells expressing Gα15

GPR103 = target: T9, GPR103 (Homo sapiens, UniProt Q96P65); assay: GPCR Profiler; assay type: cell-based
T9 construct: host or cells: Chem-1 cells expressing Gα15

NK1 = target: T10, NK1 (Homo sapiens, UniProt P25103); assay: GPCR Profiler; assay type: cell-based
T10 construct: host or cells: Chem-1 cells expressing Gα15

XCR1 = target: T11, XCR1 (Homo sapiens, UniProt P46094); assay: GPCR Profiler; assay type: cell-based
T11 construct: host or cells: Chem-1 cells expressing Galpha15

GPR68 = GPR68 (Homo sapiens, UniProt Q15743); assay: GPCR Profiler; assay type: cell-based; design: host or cells: Chem-1 cells (Chem1-OGR1)
MCF7 = assay: Cell Titer-Glo viability, Breast adenocarcinoma; assay type: cell-based
Experimental: (§1) OGM2 kills wide variety of cancer cell types. Cell sensitivity can be classified in to Very Sensitive (LC50<2 μM), Sensitive (LC50=2 to 10 μM), Mildly Sensitive (LC50>10 μM), and Refractory (no killing at 10 μM). The listed established cell were incubated with OGM2 at 2 μM or 10 μM for 72 hours under standard cell culture conditions, and relative cell number was assessed using Cell Titer-Glo Luminescent Cell Viability Assay (Promega™) following the manufacturer's instructions. Luminescence was determined using a Cytation 5 reader and Gen5 software package (BioTek™).
(§2) Cancer cells, which are very sensitive to killing by OGM2 (LCs <2 μM), with reported mRNA expression of GPR68 and the related proton sensing receptor GPR4. LC50's (concentrations causing 50% lethality) were determined using CellTiter-Glo (Promega™, G7570). Cells were plated in 12-well plates (CELLTREAT Scientific Products, 229112) in 1 ml of DMEM with high glucose, GlutaMAX, HEPES, or RPMI 1640 with Penicillin-Streptomycin (ThermoFisher™, 10564029, 11875119 and 15140122) and 10% FBS. Cells were incubated overnight at 37° C. in 5% CO2. Then 1 mL of fresh media was added with DMSO, OGM, or positive control (Erastin; APExBIO Technology, LLC, B1524) and cells incubated for 3 days. On the third day, all media was removed, cells were rinsed with 1×PBS, PBS was removed, and 200 μL of 1× Passive Lysis Buffer (Promega™, E1941) was added to each well. […]. Subsequently, 20 μL of lysate was added to 100 μL CellTiter-Glo™ reagent on a LUMITRAC 200 plate (Greiner™ bio-one, 82050-726). Plates were briefly spun down and read on a GloMax-Multi Detection System (Promega™).
(§3) The cells listed in the tables above were incubated with OGM2 at 2 μM or 10 μM for 72 hours under standard cell culture conditions, and relative cell number was assessed using Cell Titer-Glo Luminescent Cell Viability Assay (Promega™) following the manufacturer's instructions. Luminescence was determined using a Cytation 5 reader and Gen5 software package (BioTek™). RNA expression of GPR68 and GPR4 in the corresponding cancer cell lines are listed, according to the publicly available The Human Protein Atlas version 22.0 and Ensembl version 103.38 (see proteinatlas.org). The consensus normalized expression value (“nTPM”=normalize transcript per million) was calculated as the maximum nTPM value for each gene in the two data sources.

MDA-MB-231 = assay: Cell Titer-Glo viability, Breast adenocarcinoma; assay type: cell-based
Experimental: as §1, §2, §3

MDA-MB-436 = assay: Cell Titer-Glo viability, Breast adenocarcinoma; assay type: cell-based
Experimental: as §1, §2, §3

U87 glioblastoma cells = assay: Acid-induced calcium flux in U87 cells; assay type: cell-based, human; settings: medium shifted from pH 7.8 to 6.4
Description: GPR68 is known to signal through Gq which results in a calcium flux out of the Endoplasmic reticulum. U87 glioblastoma cells were stained, using a calcium-sensitive vital dye Fluo-8, and stimulated with acidification of the media to pH6.4. The cells respond to the acidification with a burst of calcium release, this is inhibited by OGM2.
To determine if GBM cells respond to their own acidic extracellular milieu as a form of autocrine signaling, calcium release in response to acidification was measured. GPR68 is known to couple to the Gq subunit, which acts to release calcium from the ER in a PLC dependent pathway. The medium was shifted from pH 7.8 to 6.4, which triggered a rapid and robust calcium flux, as measured by the fluorescence intensity of calcium-sensitive dye Cal520-AM. This calcium flux was blocked by OGM2 and PLC inhibitor U73122. FIG. 50A, FIG. 50B, FIG. 50C and FIG. 50D.

T10 sequence (P25103 whole entry): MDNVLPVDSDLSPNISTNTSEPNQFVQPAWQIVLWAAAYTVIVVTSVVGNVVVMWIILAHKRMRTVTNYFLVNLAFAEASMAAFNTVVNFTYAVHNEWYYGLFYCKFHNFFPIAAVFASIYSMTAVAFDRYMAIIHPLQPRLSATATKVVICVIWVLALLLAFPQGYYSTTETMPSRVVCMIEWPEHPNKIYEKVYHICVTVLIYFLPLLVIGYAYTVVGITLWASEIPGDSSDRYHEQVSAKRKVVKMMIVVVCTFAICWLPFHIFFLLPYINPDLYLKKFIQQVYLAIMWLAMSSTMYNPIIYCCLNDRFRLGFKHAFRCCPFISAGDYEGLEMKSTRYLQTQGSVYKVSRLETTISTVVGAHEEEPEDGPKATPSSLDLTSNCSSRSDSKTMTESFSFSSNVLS
Chain of GPR68 (Q15743 whole entry): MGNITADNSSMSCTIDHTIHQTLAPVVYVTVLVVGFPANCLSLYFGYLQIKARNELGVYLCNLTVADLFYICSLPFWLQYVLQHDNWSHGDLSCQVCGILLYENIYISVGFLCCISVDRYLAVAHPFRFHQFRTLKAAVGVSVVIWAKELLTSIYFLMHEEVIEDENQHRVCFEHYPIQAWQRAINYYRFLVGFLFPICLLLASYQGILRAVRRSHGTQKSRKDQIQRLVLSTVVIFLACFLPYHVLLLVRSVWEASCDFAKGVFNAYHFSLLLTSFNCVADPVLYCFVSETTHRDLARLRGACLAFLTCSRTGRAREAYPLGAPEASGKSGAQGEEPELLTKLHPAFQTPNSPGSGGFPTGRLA
T11 sequence (P46094 whole entry, species assumed): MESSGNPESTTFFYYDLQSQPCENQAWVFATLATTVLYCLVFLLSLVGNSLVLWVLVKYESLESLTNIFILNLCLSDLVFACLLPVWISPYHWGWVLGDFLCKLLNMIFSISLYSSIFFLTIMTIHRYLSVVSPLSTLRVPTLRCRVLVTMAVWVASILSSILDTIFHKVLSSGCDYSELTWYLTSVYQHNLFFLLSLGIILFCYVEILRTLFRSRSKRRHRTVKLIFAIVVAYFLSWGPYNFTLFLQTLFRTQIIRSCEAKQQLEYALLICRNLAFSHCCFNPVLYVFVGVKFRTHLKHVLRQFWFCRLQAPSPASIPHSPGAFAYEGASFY
T9 sequence (Q96P65 whole entry): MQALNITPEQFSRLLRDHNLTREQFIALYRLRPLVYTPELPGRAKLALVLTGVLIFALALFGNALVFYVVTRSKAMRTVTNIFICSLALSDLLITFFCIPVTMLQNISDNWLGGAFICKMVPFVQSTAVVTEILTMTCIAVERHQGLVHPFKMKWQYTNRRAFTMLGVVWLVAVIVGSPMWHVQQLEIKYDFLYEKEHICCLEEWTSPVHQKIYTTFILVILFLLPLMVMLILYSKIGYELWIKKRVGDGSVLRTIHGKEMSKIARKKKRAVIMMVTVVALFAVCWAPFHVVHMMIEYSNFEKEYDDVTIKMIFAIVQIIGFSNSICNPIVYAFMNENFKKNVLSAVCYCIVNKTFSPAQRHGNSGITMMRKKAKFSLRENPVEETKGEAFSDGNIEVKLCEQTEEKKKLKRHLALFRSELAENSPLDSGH
T8 sequence (P47211 whole entry): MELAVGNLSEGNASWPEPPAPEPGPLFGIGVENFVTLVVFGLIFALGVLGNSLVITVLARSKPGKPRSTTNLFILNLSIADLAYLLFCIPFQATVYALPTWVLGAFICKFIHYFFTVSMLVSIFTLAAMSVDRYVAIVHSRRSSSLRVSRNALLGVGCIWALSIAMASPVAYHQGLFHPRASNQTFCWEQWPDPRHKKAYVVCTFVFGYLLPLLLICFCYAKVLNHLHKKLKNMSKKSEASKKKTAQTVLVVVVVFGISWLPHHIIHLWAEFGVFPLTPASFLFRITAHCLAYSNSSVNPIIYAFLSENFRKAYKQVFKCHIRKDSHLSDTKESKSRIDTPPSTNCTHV
T7 sequence (P41595 whole entry): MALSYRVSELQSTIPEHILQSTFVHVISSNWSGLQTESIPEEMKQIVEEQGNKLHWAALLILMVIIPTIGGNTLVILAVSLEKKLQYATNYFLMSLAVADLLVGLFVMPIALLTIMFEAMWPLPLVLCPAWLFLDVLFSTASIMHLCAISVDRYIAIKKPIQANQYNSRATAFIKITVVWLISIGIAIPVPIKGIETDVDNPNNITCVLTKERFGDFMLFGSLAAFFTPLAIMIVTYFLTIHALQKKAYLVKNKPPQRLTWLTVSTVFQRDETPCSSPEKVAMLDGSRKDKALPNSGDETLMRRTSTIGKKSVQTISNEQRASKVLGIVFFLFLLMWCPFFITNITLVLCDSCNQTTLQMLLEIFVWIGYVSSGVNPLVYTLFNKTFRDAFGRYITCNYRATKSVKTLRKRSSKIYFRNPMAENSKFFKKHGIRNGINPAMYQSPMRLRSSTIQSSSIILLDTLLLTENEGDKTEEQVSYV
T6 sequence (P0C1S8 whole entry): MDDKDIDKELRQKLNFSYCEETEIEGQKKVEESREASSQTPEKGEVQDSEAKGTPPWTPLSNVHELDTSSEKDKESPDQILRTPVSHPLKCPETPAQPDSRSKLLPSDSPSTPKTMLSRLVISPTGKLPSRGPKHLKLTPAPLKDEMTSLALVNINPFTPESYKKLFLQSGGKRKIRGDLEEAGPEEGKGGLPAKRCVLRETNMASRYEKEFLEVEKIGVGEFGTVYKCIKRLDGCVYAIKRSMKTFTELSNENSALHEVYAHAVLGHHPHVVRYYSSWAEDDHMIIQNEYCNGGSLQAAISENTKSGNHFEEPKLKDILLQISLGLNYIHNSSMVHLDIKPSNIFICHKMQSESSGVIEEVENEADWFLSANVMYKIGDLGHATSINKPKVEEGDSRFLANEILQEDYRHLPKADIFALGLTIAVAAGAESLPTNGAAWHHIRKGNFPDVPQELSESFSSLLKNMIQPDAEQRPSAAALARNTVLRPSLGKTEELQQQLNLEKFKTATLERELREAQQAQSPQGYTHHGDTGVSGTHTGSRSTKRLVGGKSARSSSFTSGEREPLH
T2 sequence (Q9NWZ3 whole entry): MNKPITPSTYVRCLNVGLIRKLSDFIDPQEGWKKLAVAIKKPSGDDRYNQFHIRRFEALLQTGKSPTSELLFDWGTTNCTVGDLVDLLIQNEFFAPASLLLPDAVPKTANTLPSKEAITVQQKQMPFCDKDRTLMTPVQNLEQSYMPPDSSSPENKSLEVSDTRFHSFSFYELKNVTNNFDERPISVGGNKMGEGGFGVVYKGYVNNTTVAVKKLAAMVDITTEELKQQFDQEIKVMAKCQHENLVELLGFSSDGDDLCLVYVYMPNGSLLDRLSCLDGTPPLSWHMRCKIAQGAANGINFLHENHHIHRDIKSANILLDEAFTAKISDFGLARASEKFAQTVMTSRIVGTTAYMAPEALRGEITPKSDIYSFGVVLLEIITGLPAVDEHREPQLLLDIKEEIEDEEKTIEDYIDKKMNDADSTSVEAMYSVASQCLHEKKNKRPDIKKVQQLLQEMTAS
T4 sequence (Q99759 whole entry): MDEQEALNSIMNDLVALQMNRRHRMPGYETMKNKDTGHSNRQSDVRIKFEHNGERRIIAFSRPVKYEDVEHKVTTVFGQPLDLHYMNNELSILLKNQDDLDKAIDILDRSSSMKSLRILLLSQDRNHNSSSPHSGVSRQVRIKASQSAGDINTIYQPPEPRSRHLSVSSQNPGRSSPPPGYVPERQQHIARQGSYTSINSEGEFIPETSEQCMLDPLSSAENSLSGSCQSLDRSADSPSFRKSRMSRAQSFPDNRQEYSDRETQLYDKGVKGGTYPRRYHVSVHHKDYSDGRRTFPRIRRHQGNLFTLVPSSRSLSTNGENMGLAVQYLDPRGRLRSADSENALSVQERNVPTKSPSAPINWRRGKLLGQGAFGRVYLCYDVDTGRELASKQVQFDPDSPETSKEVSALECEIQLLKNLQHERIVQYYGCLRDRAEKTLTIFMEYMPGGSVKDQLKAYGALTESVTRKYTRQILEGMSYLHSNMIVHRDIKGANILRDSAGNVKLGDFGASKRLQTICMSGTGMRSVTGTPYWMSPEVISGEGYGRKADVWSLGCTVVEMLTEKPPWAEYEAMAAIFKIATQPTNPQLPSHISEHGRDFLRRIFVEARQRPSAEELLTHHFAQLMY
T1 sequence (O00238 14-502): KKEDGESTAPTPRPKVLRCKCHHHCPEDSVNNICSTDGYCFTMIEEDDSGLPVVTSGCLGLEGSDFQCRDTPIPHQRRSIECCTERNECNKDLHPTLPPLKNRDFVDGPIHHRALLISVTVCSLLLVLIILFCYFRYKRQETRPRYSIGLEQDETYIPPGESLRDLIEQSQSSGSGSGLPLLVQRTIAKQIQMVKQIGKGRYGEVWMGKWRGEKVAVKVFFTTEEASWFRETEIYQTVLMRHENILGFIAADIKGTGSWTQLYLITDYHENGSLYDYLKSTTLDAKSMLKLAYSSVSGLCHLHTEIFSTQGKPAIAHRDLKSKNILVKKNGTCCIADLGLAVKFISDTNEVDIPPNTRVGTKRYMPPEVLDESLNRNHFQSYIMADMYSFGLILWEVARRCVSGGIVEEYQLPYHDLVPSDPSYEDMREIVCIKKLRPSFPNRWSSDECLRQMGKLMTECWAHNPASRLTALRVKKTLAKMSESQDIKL

Compound: CCc1ccc2c(c1)C1(NN=C(c3cccc4ccccc34)S1)C(=O)N2 (centres unmarked) [OGM1, 5-ethyl-5′-naphthalen-1-ylspiro[1H-indole-3,2′-3H-1,3,4-thiadiazole]-2-one]
- remaining binding at 10 µM (BMPR1B): 81%
- remaining binding at 10 µM (CHEK2): 82%
- remaining binding at 10 µM (IRAK4): 88%
- remaining binding at 10 µM (KIT): 79%
- remaining binding at 10 µM (MAP3K3): 72%
- remaining binding at 10 µM (SYK): 98%
- remaining binding at 10 µM (WEE2): 100%
- Antagonism (5-HT2B; 10 uM): 0.3
- Agonism (5-HT2B; 12.5 uM): −0.1
- Antagonism (GAL1; 10 uM): −7.3
- Agonism (GAL1; 12.5 uM): 1.6
- Antagonism (GPR103; 10 uM): −7
- Agonism (GPR103; 12.5 uM): −0.1
- Antagonism (NK1; 10 uM): −1.4
- Agonism (NK1; 12.5 uM): −1.5
- Antagonism (XCR1; 10 uM): 1.8
- Agonism (XCR1; 12.5 uM): 0.1
- Antagonism (GPR68; 10 uM): 70.8
- Agonism (GPR68; 12.5 uM): −7.6

Compound: CCc1ccc2c(c1)C1(NN=C(c3ccccc3)S1)C(=O)N2 (centres unmarked) [OGM2]
- Class (MCF7): Sensitive (Sensitive (LC50=2 to 10 μM))
- % Survival 2 μM OGM (MCF7; 72 hours): 50.6%
- % Survival 10 μM OGM (MCF7; 72 hours): 25.2%
- CC50 (MCF7; Homo sapiens, MCF7, 72 hours, read-out: LC50 (the source's name)): 2 to 10 µM
- Class (MDA-MB-231): Sensitive (Sensitive (LC50=2 to 10 μM))
- % Survival 2 μM OGM (MDA-MB-231; 72 hours): 70.1%
- % Survival 10 μM OGM (MDA-MB-231; 72 hours): 48.1%
- CC50 (MDA-MB-231; Homo sapiens, MDA-MB-231, 72 hours, read-out: LC50 (the source's name)): 2 to 10 µM
- Class (MDA-MB-436): Sensitive (Sensitive (LC50=2 to 10 μM))
- % Survival 2 μM OGM (MDA-MB-436; 72 hours): 52.6%
- % Survival 10 μM OGM (MDA-MB-436; 72 hours): 35.7%
- CC50 (MDA-MB-436; Homo sapiens, MDA-MB-436, 72 hours, read-out: LC50 (the source's name)): 2 to 10 µM
- acid-induced calcium flux (U87 glioblastoma cells): blocked
